Source: publication PMC11475289, “Synthetically accessible de novo design using reaction vectors: Application to PARP1 inhibitors” (Molecular Informatics, 2024)
Read-outs that look alike come from different tables or passages of the source.

Assays:
[1] = PAMPA BBB permeability (brain polar lipid coated filter); assay type: in vitro ADME; conditions: for MR (membrane retention): pH 7.4, 5 h; for Papp at 5 h, 500 μM: PAMPA
Procedure: The donor solution (150 μL) was then added to each well of the filter plate. 300 μL of the solution (50 % DMSO in phosphate buffer) were added to each well of the acceptor plate. The sandwich plate was assembled and incubated for 5 h at room temperature. After the incubation time, plates were separated, samples were taken from both the donor and acceptor wells, and the compound concentration was measured by UV/LC–MS. All compounds were tested in three independent experiments. […] (3) Papp=VD×VA/VD+VAAt-ln(1-r)
Equation (3): Experimental apparent permeability (Papp) calculation as described in the literature modified to yield values in cm s^−1 [67, 68]. […] Drug concentration is estimated by using the peak area integration. (4) %MR=[r-D+A]/Eq×100
Equation (4): Membrane retention calculation: r is the ratio between drug concentration in the acceptor and equilibrium solutions. D, A, and Eq represent the drug concentration in the donor, acceptor, and equilibrium solutions, respectively.

full-length human PARP1 = target: T1, full-length human PARP1 (Homo sapiens, UniProt P09874); test: PARP1 enzymatic assay (homogeneous NAD+ consumption assay); assay type: biochemical; conditions: 5 nM PARP1, 500 nM NAD+, 30 min
T1 construct: Briefly, full‐length human PARP1 was produced in E. coli Rosetta2 (DE3); made in house; host or cells: E. coli Rosetta2 (DE3)
T1 sequence (P09874 whole entry): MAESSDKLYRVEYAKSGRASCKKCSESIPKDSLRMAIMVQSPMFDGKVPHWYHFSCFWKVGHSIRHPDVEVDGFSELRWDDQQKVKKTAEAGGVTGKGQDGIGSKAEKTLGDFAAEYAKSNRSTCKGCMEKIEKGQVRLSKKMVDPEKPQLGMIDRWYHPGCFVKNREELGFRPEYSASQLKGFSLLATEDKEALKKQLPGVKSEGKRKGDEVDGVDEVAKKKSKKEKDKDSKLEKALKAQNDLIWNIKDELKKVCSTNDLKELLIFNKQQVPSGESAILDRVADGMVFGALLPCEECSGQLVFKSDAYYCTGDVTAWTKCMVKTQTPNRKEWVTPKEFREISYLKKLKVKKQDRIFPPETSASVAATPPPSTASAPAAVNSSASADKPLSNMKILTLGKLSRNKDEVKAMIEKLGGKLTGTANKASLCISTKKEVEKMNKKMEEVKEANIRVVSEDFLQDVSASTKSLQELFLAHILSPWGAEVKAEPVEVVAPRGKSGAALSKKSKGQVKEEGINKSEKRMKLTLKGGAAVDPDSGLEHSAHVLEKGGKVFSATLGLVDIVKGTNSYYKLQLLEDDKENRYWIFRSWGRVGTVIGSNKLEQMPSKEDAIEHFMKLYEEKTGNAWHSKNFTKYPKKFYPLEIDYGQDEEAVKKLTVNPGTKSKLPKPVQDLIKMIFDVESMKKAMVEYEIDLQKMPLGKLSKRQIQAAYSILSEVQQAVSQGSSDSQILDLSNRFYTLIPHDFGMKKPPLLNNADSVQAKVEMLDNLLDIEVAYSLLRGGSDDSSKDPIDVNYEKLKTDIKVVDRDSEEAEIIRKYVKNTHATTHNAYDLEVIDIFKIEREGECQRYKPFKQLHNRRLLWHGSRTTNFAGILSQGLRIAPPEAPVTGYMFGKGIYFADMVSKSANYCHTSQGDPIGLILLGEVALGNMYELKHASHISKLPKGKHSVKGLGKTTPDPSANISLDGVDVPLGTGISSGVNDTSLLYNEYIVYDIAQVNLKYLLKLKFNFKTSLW
Procedure: PARP1 was expressed and purified as described in the literature. Briefly, full‐length human PARP1 was produced in E. coli Rosetta2 (DE3). The cells were harvested by centrifugation, and re‐suspended in lysis buffer containing 50 mM HEPES pH 8.0, 500 mM NaCl, 10 % glycerol, 0.5 mM TCEP and 10 mM imidazole. The sample was lysed using sonication in the presence of DNAse1 and 3‐aminobenzamide, centrifuged at 18,000 rpm for 1 h and the supernatant was filtered. The clarified sample was loaded to a HiTrap^TM IMAC column (Cytiva), washed with lysis buffer, then with a similar buffer containing 1 M NaCl, and finally with lysis buffer containing 25 mM imidazole before eluting the protein with 500 mM imidazole. The eluted sample was then diluted to reduce NaCl concentration to 250 mM, and loaded to a HiTrap Heparin column (Cytiva). The column was washed with 50 mM HEPES, 250 mM NaCl, 10 % glycerol, 1 mM EDTA, 0.1 mM TCEP, pH 7.5. and the sample was eluted using a gradient with a similar buffer containing 1 M NaCl. Fractions were analyzed by SDS‐PAGE and those containing protein were pooled and concentrated before aliquoting and stored at −70 °C.
IC50 was determined using homogeneous NAD^+ consumption assay. 5 nM PARP1 was incubated with each compound in log half dilution series for 30 min in 50 mM Tris pH 8.0, 5 mM MgCl2, 0.2 mg mL^−1 BSA, 10 μg mL^−1 activated DNA and 500 nM NAD^+. The reactions were performed in quadruplicates and resulting IC50 curves were fitted to a sigmoidal dose‐response curve (four variables) using GraphPad Prism version 8.02. Each experiment was repeated three times from which pIC50±SEM was calculated. Compounds with IC50 above 1 μM were measured only once.

[2] = pH 7.4, pH 7.4, donor 500 μM, 5 h, room temperature, read-out: PAMPA BBB Papp

Row | MR (membrane retention) ([1]; PAMPA BBB) | IC50 (result in words) (full-length human PARP1) | IC50 (full-length human PARP1; averaged on three replicas) | Structure (SMILES) | other results
1 | 3.0% | – | – | O=C(c1cc(Cc2n[nH]c(=O)c3ccccc23)ccc1F)N1CCN(C(=O)C2CC2)CC1 [Olaparib, reference compound] | –
2 | – | No inhibition | – | Cc1cc(COC(=O)c2c(C)ccc3[nH]ncc23)ccc1C(=O)N1CCOCC1 [Row26, [3‐Methyl‐4‐(morpholine‐4‐carbonyl)phenyl]methyl 5‐methyl‐1H‐indazole‐4‐carboxylate] | –
3 | – | sub‐micromolar | 395 nM | O=c1[nH]nc(-c2ccc(Br)cc2)c2ccccc12 [Row86 (I), 4‐(4‐bromophenyl)‐2H‐phthalazin‐1‐one] | –
4 | – | sub‐micromolar | 755 nM | CCCC(O)c1ccc(-c2n[nH]c(=O)c3ccccc23)cc1 (stereo not drawn) [Row86, 4‐[4‐(1‐Hydroxybutyl)phenyl]‐1,2‐dihydrophthalazin‐1‐one] | –
5 | 0.8% | – | – | Cc1cc2cc(C(=O)OCc3ccc(C(=O)N4CCOCC4)c(C)c3)ccc2c(=O)[nH]1 [Row514, [3‐Methyl‐4‐(morpholine‐4‐carbonyl)phenyl]methyl 3‐methyl‐1‐oxo‐1,2‐dihydroisoquinoline‐6‐carboxylate] | IC50 (full-length human PARP1; IC50 above 1 μM measured once): 19000 nM; BBB permeability relative to reference Olaparib ([1]; PAMPA BBB, ratio of Papp): approximately 20 times; Papp at 5 h, 500 μM [1, 2]: 0.325 ×10⁻⁶ cm/s
6 | – | No inhibition | – | Cc1cc(CN)ccc1-c1cc(F)c2c(c1)C(=O)NCC2.Cl [Row528 (I), 7‐[4‐(Aminomethyl)‐2‐methylphenyl]‐5‐fluoro‐1,2,3,4‐tetrahydroisoquinolin‐1‐one hydrochloride] | –
7 | – | No inhibition | – | C#CCCNCc1ccc(-c2cc(F)c3c(c2)C(=O)NCC3)c(C)c1 [Row528, 7‐(4‐{[(But‐3‐yn‐1‐yl)amino]methyl}‐2‐methylphenyl)‐5‐fluoro‐1,2,3,4‐tetrahydroisoquinolin‐1‐one] | –
8 | 3.6% | sub‐micromolar | 908 nM | CC1CC1C(=O)c1ccc(-c2n[nH]c(=O)c3ccccc23)cc1 (stereo not drawn) [Row745(2), 4‐[4‐(2‐Methylcyclopropanecarbonyl)phenyl]‐1,2‐dihydrophthalazin‐1‐one] | Papp at 5 h, 500 μM ([1]; pH 7.4, PAMPA BBB, read-out: BBB permeability (diffusion)): 2.1 ×10⁻⁶ cm/s; Papp at 5 h, 500 μM [1, 2]: 2.1 ×10⁻⁶ cm/s
9 | – | – | – | Cc1ccc(Cn2cc(CCN)c3c(C#N)cccc32)cc1 [Row847, 3‐(2‐Aminoethyl)‐1‐[(4‐methylphenyl)methyl]‐1H‐indole‐4‐carbonitrile] | IC50 (full-length human PARP1; IC50 above 1 μM measured once): 16000 nM
